pIC50: −log10 of the molar value.
Test system: K-Ras wild type expressing 293 cells
Settings: FIG. 6B
Procedure: SW480 and HT29 cells are both propagated at 37° C./5% CO2 and in RPMI+10% fetal bovine serum (FBS) and DMEM+10% FBS, respectively. Upon plating cells in microtiter plates, compounds are supplemented at various concentrations and viability is assessed within 24-72 hrs by manual or automated (Countess (Invitrogen)) trypan blue cytometry.

Cc1ccc(Nc2nc(N/N=C/c3cccc([N+](=O)[O-])c3O)nc(N3CCOCC3)n2)cc1 [A0383, 2-(hydroxynitroso)-6-[(1E)-(2-{4-[(4-methylphenyl)amino]-6-(morpholin-4-yl)-1,3,5-triazin-2-yl}hydrazin-1-ylidene)methyl]phenol]
general toxicity (293 cells not overexpressing mutant K-Ras, dosages 50-100 µM): lack of general toxicity
pIC50 (read-out: IC50 (cell death, unspecific toxicity), K-Ras wild type expressing 293 cells): < 4.00

Reference: US10668076B1, “Compositions and methods of targeting mutant K-Ras” (NantBio, Inc., priority 2011, dated 2020)
